Experimental data as given in patent publication US11684599B2, “Very-long-chain polyunsaturated fatty acids, elovanoid hydroxylated derivatives, and methods of use” (Board of Supervisors of Louisiana State University and …, priority 2017, dated 2023).

Tested on: cerebral-cortical mixed neuronal cells and hippocampal neurons
Experiment: NMDA excitotoxicity of neurons in culture, cell viability
Format: cell-based, rat
Conditions: for synergy with NPD1 in neuroprotection against NMDA excitotoxicity: ELV 200 nM with NPD1 100 nM; for synergy with NPD1 in neuroprotection against NMDA excitotoxicity / neuroprotection against NMDA excitotoxicity (Hoechst): NMDA 100 μM; for synergy with NPD1 in neuroprotection against NMDA excitotoxicity / NMDA-induced neuronal death / neuroprotection against NMDA excitotoxicity (Hoechst): 12 h; for NMDA-induced neuronal death: ELV (Na or Me) 200 nM or 500 nM added along with NMDA 25, 50 or 100 μM; for neuroprotection with MK801 and NPD1 added together: compared with ELV-N32-Na or ELV-N32-Me alone; for neuroprotection against NMDA excitotoxicity (Hoechst): 500 nM, DIV 12
From the text: Primary cultures of cortical and hippocampal neurons were harvested from 18-day-old embryos (E18) taken from timed-pregnant, two-month-old Sprague-Dawley (SD) rats (Charles River Lab., Wilmington, Mass.). Briefly, timed-pregnant SD rats were euthanized and embryos were collected in sterile conditions. Embryonic brains were dissected out by forceps on ice and placed in a petri dish containing ice-cold Hank's Balanced Salt Solution (HBSS) (GIBCO). Meninges were removed under a dissecting microscope and cortical tissues were chopped into small pieces with micro-spring scissors. These tissues were transferred to 15 ml tubes containing trypsin-EDTA (0.025% in HBSS) and DNase I. The tubes were incubated in 37° C. chamber for 15 mins and were agitated every 5 mins. After stopping the trypsinization with 5 ml 10% FBS, these tissues were triturated 15 times with a fire polished Pasteur pipet. Cell clumps were left to settle for 2 mins and the supernatant was transferred to a 15 ml Eppendorf tube. The supernatant was filtered through a 70 μm pore-sized filter (Corning cell strainer) and centrifuged for 5 mins at 1000 rpm. The cells were then resuspended in Neurobasal medium (GIBCO) containing 2% B27 (GIBCO) and 2% N2 (GIBCO) supplements, along with 0.5 mM glutamine, 50 U/ml penicillin/streptomycin.
Cells were counted using a Neubauer hemocytometer. 1×10^6 cells were seeded on poly-D-lysine-coated 12 well cell culture dish (CORNING) and cultured in incubator (37° C., 5% CO2). Culture medium was first replaced after 24 h, then half of the medium was replaced with fresh medium every three days. As a result, approximately, 90% purity of neurons was obtained as determined by class-III-β tubulin, GFAP and Hoechst 33258 staining. Cells were maintained in culture for about 2 weeks until they were exposed to uncompensated oxidative stress, OGD, or NMDA excitotoxicity.
After 90 mins of OGD exposure, cells were returned to the original medium (Neurobasal medium (GIBCO) containing 2% B27 (GIBCO) and 2% N2 (GIBCO) supplements, along with 0.5 mM glutamine, 50 U/ml penicillin/streptomycin) and placed in a normoxic chamber (37° C., 5% CO2) for 2 h. Then the medium was changed with medium containing either ELV-N32 or ELV-N34 [500 nM] and maintained in a normoxic chamber (37° C., 5% CO2) for 12 h, after which cells were sampled and assayed for cell viability using different methods as previously described (25-28). Cerebral cortical mixed neuronal cells or hippocampal cells in culture were exposed to either NMDA or uncompensated oxidative stress (UOS) for 12 h by addition of either NMDA (25 μM, 50 μM, or 100 μM) concentration or by the addition of TNFα (10 ng/mL) and H2O2 (50 μM, 100 μM, or 200 μM). Cell viability and neuroprotection in the presence of ELV-N32, ELV-N34, 32:6, or 34:6 were assayed after 12 h.
Cells were washed with 1× Dulbecco's Phosphate Buffered Saline (DPBS) containing no calcium or magnesium (GIBCO) and fixed for 10 mins using ice-cold 4% paraformaldehyde (PFA) followed by 15 mins incubation in 100% methanol. Cells were washed with 1× Phosphate Buffered Saline (PBS) pH 7.4 (GIBCO) and incubated in PBS containing 20 μM Hoechst 33258 (Molecular Probes) for 20 mins. Cells were then washed 3 times with 1×PBS and stored in 1×PBS at 4° C. until they were imaged for microscopy.
One 4×4 tile mosaic was acquired from the center of each well using a Zeiss 510 Meta laser confocal microscope and LSM 510 Meta software. Images were imported into image analysis software ImageJ (National Institutes of Health, Bethesda, Md.) and batch processed using custom macros. An Otsu auto threshold was applied to each image of Hoechst-stained nuclei, and the area of each detected object was recorded. Objects with areas <10 μm^2 were excluded from analysis. To estimate percentage non-pyknotic nuclei, a size cutoff value was chosen above which objects were assumed to be non-pyknotic. […]

Compound | synergy with NPD1 in neuroprotection against NMDA excitotoxicity | NMDA-induced neuronal death | neuroprotection with MK801 and NPD1 added together | neuroprotection against NMDA excitotoxicity (Hoechst) | other results
CC/C=C\C/C=C\C/C=C\C/C=C\C/C=C\C/C=C\CCCCCCCCCCCCC(=O)O [32:6n3, (14Z,17Z,20Z,23Z,26Z,29Z)-dotriaconta-14,17,20,23,26,29-hexaenoic acid] | – | – | – | – | NMDA excitotoxicity (precursor at 250 nM): attenuate NMDA excitotoxicity
CC/C=C\C/C=C\C/C=C\C/C=C\C/C=C\C/C=C\CCCCCCCCCCCCCCC(=O)O [34:6n3, (16Z,19Z,22Z,25Z,28Z,31Z)-tetratriaconta-16,19,22,25,28,31-hexaenoic acid] | – | – | – | – | NMDA receptor-mediated excitotoxicity (precursor at 500 nM): attenuates NMDA receptor-mediated excitotoxicity
CC/C=C\C[C@H](O)\C=C/C=C/C=C/[C@H](O)C/C=C\C/C=C\CCCCCCCCCCCCC(=O)OC [ELV-N32-Me, methyl (14Z,17Z,20R,21E,23E,25Z,27S,29Z)-20,27-dihydroxydotriaconta-14,17,21,23,25,29-hexaenoate] | showed synergy | compensated for | improved the neuroprotection | – | relative potency of the combination with NPD1 (ELV-N32-Me plus NPD1 versus ELV-N32-Na plus NPD1): more potent
CC/C=C\C[C@H](O)\C=C/C=C/C=C/[C@H](O)C/C=C\C/C=C\CCCCCCCCCCCCC(=O)[O-].[Na+] [ELV-N32-Na, sodium (14Z,17Z,20R,21E,23E,25Z,27S,29Z)-20,27-dihydroxydotriaconta-14,17,21,23,25,29-hexaenoate] | showed synergy | compensated for | improved the neuroprotection | neuroprotection elicited | –
CC/C=C\C[C@H](O)\C=C/C=C/C=C/[C@H](O)C/C=C\C/C=C\CCCCCCCCCCCCCCC(=O)OC [ELV-N34-Me, methyl (16Z,19Z,22R,23E,25E,27Z,29S,31Z)-22,29-dihydroxytetratriaconta-16,19,23,25,27,31-hexaenoate] | – | – | – | neuroprotection elicited | –
